# Source: patent US5358947A, “Angiotensin II receptor blocking 2,3-substituted pyrazolo[1,5-a]-1,3,5-triazin-4(3H)-ones” (American Cyanamid Company, priority 1993, dated 1994)
# Values joined by “and” are separate entries in the source; they are usually repeats but may differ in a detail not shown here. Equal entries are not always repeated.
# Test system: ANGIOTENSIN II (AII) VASOPRESSOR RESPONSE
# Experiment: AII Challenge: angiotensin II (AII) vasopressor response in conscious rats
# Type: in vivo
# Set-up: Response After AII / Change / Average Change: unit not given here
# Conditions: 10 mg/kg i.v.; for Change / Response After AII / Control Before AII: individual rat; for Control Before AII: in mmHg (unit assumed); for % Inhibition / Average Change: n = 2
# Excerpt: By administering a compound of this invention to a rat, and then challenging with angiotensin II, a blockage of the vasopressor response is realized.
# Conscious Male Okamoto-Aoki SHR, 16-20 weeks old, weighing approximately 330 g are purchased from Charles River Labs (Wilmington, Mass.). Conscious rats are restrained in a supine position with elastic tape. The area at the base of the tail is locally anesthetized by subcutaneous infiltration with 2% procaine. The ventral caudal artery and vein are isolated, and a cannula made of polyethylene (PE) 10-20 tubing (fused together by heat) is passed into the lower abdominal aorta and vena cava, respectively. The cannula is secured, heparinized (1,000 I.U./ml), sealed and the wound is closed. The animals are placed in plastic restraining cages in an upright position. The cannula is attached to s Statham P23Db pressure transducer, and pulsatile blood pressure is recorded to 10-15 minutes with a Gould Brush recorder. (Chan et al., (Drug Development Res., 18:75-94, 1989).
# Angiotensin II (human sequence, Sigma Chem. Co., St. Louis, Mo.) of 0.05 and 0.1 ug/kg i.v. is injected into all rats (predosing response.). Then a test compound, vehicle or a known angiotensin II antagonist is administered i.v., i.p. or orally to each set of rats. The two doses of angiotensin II are given to each rat again at 30, 60, 90, 120, 180, 240 and 300 minutes post dosing the compound or vehicle. The vasopressor response of angiotensin II by a compound is calculated using the vasopressor response (increase in systolic blood pressure) of angiotensin II of each rat predosing the compound as 100%. A compound is considered active if at 30 mg/kg i.v. it antagonized at least 50% of the response.
# [1] = AII 0.05 mcg/kg, 30 min post dose
# [2] = AII 0.05 mcg/kg, 30 min post dose, listed as Ex. 11
# [3] = AII 0.05 mcg/kg, 60 min post dose, listed as Ex. 11
# [4] = AII 0.05 mcg/kg, 60 min post dose
# [5] = AII 0.05 mcg/kg, 90 min post dose
# [6] = AII 0.05 mcg/kg, 90 min post dose, listed as Ex. 11
# [7] = AII 0.05 mcg/kg, 120 min post dose
# [8] = AII 0.05 mcg/kg, 120 min post dose, listed as Ex. 11
# [9] = AII 0.05 mcg/kg, 180 min post dose
# [10] = AII 0.05 mcg/kg, 180 min post dose, listed as Ex. 11
# [11] = AII 0.05 mcg/kg, 240 min post dose
# [12] = AII 0.05 mcg/kg, 240 min post dose, listed as Ex. 11
# [13] = AII 0.05 mcg/kg, 300 min post dose
# [14] = AII 0.05 mcg/kg, 300 min post dose, listed as Ex. 11
# [15] = AII 0.1 mcg/kg, 30 min post dose
# [16] = AII 0.1 mcg/kg, 30 min post dose, listed as Ex. 11
# [17] = AII 0.1 mcg/kg, 60 min post dose
# [18] = AII 0.1 mcg/kg, 90 min post dose
# [19] = AII 0.1 mcg/kg, 90 min post dose, listed as Ex. 11
# [20] = AII 0.1 mcg/kg, 120 min post dose
# [21] = AII 0.1 mcg/kg, 120 min post dose, listed as Ex. 11
# [22] = AII 0.1 mcg/kg, 180 min post dose
# [23] = AII 0.1 mcg/kg, 240 min post dose
# [24] = AII 0.1 mcg/kg, 240 min post dose, listed as Ex. 11
# [25] = AII 0.1 mcg/kg, 300 min post dose
# [26] = AII 0.1 mcg/kg, 300 min post dose, listed as Ex. 11
structure (smiles),measurement,setting,value
"CCCCc1nc2cc(-c3ccco3)nn2c(=O)n1Cc1ccc(-c2ccccc2-c2nnn[nH]2)cc1 [Example 11, 2-Butyl-7-(2-furanyl)-3-[[2'-(1H-tetrazol-5-yl)[1,1'-biphenyl]-4-yl]methyl]pyrazolo[1,5-a]-1,3,5-triazin-4(3H)-one]",Change,[1],0
same,Response After AII,[1],200
same,Response After AII,[2],205
same,Control Before AII,[2],200 and 205
same,% Inhibition,[1],100%
same,Average Change,[1],0
same,Change,[3],13 and 5
same,Response After AII,[3],198 and 200
same,Control Before AII,[3],185 and 195
same,% Inhibition,[4],76%
same,Average Change,[4],9
same,Response After AII,[5],200
same,Change,[6],10 and 15
same,Control Before AII,[6],190 and 185
same,% Inhibition,[5],67%
same,Average Change,[5],12.5
same,Response After AII,[7],195
same,Control Before AII,[7],185
same,Change,[8],20 and 10
same,Response After AII,[8],205
same,% Inhibition,[7],60%
same,Average Change,[7],15
same,Response After AII,[9],195
same,Control Before AII,[9],185
same,Change,[10],10 and 20
same,Response After AII,[10],205
same,% Inhibition,[9],60%
same,Average Change,[9],15
same,Control Before AII,[11],185
same,Change,[12],25 and 15
same,Response After AII,[12],210 and 200
same,% Inhibition,[11],47%
same,Average Change,[11],20
same,Control Before AII,[13],185
same,Change,[14],30 and 20
same,Response After AII,[14],215 and 205
same,% Inhibition,[13],33%
same,Average Change,[13],25
same,Response After AII,[15],192
same,Change,[16],2 and 0
same,Response After AII,[16],205
same,Control Before AII,[16],190 and 205
same,% Inhibition,[15],98%
same,Average Change,[15],1
same,Change,[17],10
same,Response After AII,[17],205
same,Control Before AII,[17],195
same,% Inhibition,[17],79%
same,Average Change,[17],10
same,Response After AII,[18],210
same,Control Before AII,[18],190
same,Change,[19],20 and 15
same,Response After AII,[19],205
same,% Inhibition,[18],63%
same,Average Change,[18],17.5
same,Response After AII,[20],200
same,Control Before AII,[20],185
same,Change,[21],20 and 15
same,Response After AII,[21],205
same,% Inhibition,[20],63%
same,Average Change,[20],17.5
same,Change,[22],25
same,Response After AII,[22],210
same,Control Before AII,[22],185
same,% Inhibition,[22],47%
same,Average Change,[22],25
same,Response After AII,[23],210
same,Control Before AII,[23],185
same,Change,[24],30 and 25
same,Response After AII,[24],205
same,Control Before AII,[24],175
same,% Inhibition,[23],42%
same,Average Change,[23],27.5
same,Response After AII,[25],210
same,Control Before AII,[25],185
same,Change,[26],25 and 30
same,Response After AII,[26],215
same,% Inhibition,[25],42%
same,Average Change,[25],27.5
